From patent US20100028447A1, “Intranasal, Buccal, And Sublingual Administration Of Metanicotine Analogs” (TARGACEPT, INC., priority 2007, published 2010)

Tests used:
[1] = tested on: cultured human respiratory epithelium; assay: Permeation across cultured human respiratory epithelium (EpiAir tissue), apical-to-basolateral Papp
Description: (§1) An in vitro model of MatTek EpiAir® tissue was used for the permeability assessment of the test articles and control compounds. The EpiAir® culture consists of cells that have been cultured to form a pseudo-stratified, highly differentiated model closely resembling the epithelial tissue of the human respiratory tract. The histological cross-sections of the cultured tissue reveal a pseudo-stratified mucociliary phenotype.
(§2) EpiAir® tissues plated in 12 well plates were pre-equilibrated for the assay by culturing them for 24 hours at 37° C. with 5% CO2 in a humidified incubator. On the day of the assay, the cultures were washed two times with Dulbeccos' Phosphate Buffered Saline (DPBS buffer) at pH 7.4, and then dosed with donor and receiver buffer applied to the apical and basolateral surfaces of the culture, respectively. The receiver buffer consisted of DPBS, at pH 7.4. The donor solution consisted of DPBS buffer containing the appropriate compounds as specified in Table 1. All treatments were performed in triplicate. The receiver buffer was sampled at 15, 30, 60, and 120 minutes, and the donor buffer was sampled at 120 minutes.
(§3) The Lucifer Yellow concentration in the receiver samples was measured using a FluoStar fluorescence plate reader (BMG Laboratories, Durham, N.C.).
(§4) The apparent permeability coefficient, Papp, was calculated as follows: […]
(§5) where: dCr/dt is the slope of the cumulative concentration in the receiver compartment versus time; Vr is the volume of the receiver compartment; A is the surface area of epithelium available for permeation; and Co is the dosing solution concentration.

[2] = In situ brain perfusion, single time-point method
Experimental: Animals used in this study were Sprague-Dawley rats (approximate weight 250-300 grams), obtained from Hilltop Lab Animals, Scottdale, Pa. Upon arrival, the rats were assigned randomly to treatment groups and acclimated for at least 24 hours. The animals were housed two per cage and identified by cage labels. A single room was used for this study. The animals were supplied with water and a commercial rodent diet ad libitum. On the day of the experiment, each rat was anesthetized intraperitoneally with Ketamine HCl/Xylazine HCl solution prior to being implanted with a cannula into the left carotid artery. Branch arteries were […], and the cardiac supply was cut off prior to brain perfusion.
Perfusion was performed using the single time-point method. […] Following 30 seconds of perfusion, the pump was stopped, and the brain was removed from the skull immediately. The brain was cut longitudinally in […]. Each left cerebral hemisphere was placed into a chilled tube, frozen on dry ice, and stored frozen at −60° C. to −80° C. until analyzed. […] Test articles were perfused at concentrations of 50 μM. The outline of the experimental treatments and the target and measured concentrations of the test articles and control compounds in the perfusate are presented in Table 3.
The left brain hemisphere from each rat was thawed and weighed. Methanol (20% aqueous) was added to each left brain hemisphere at approximately 4 mL per 1 g of brain tissue, and the mixture was homogenized using sonication with a VirSonic Ultrasonic Cell Disruptor 100 (VirTis). The test articles and two reference compounds were analyzed in the resulting homogenate by using LC/MS/MS.
The unidirectional brain transfer constants Kin (mL/g/min) were determined for the test articles and the high permeability reference, antipyrine, using the following equation for the single-point perfusion assay: […]
where: Cbr/Cpf is the apparent brain distribution volume (mL/g of brain tissue); Cbr is the concentration of drug in the brain tissue (pmol of drug per g of brain tissue); Cpf is the drug concentration in the perfusion fluid (pmol/mL of perfusate); and t is the net perfusion time (minutes).
Graphic representation and statistical analyses of the data were performed using GraphPad Prism software.

[3] = Permeation across cultured human respiratory epithelium (EpiAir tissue), apical-to-basolateral Papp; conditions: human, pH 7.4, Papp
Description: as §1, §2, §3, §4, §5

[4] = Treatment 3: MAO substrate Phenylethylamine assayed with controls, Average ± STD
[5] = Treatment 3: MAO substrate Phenylethylamine assayed with controls, Rep 1
[6] = Treatment 3: MAO substrate Phenylethylamine assayed with controls, Rep 2
[7] = Treatment 3: MAO substrate Phenylethylamine assayed with controls, Rep 3
[8] = Treatment 4: Phenylethylamine assayed with controls + MAO inhibitor Pargyline, Average ± STD
[9] = Treatment 4: Phenylethylamine assayed with controls + MAO inhibitor Pargyline, Rep 1
[10] = Treatment 4: Phenylethylamine assayed with controls + MAO inhibitor Pargyline, Rep 2
[11] = Treatment 4: Phenylethylamine assayed with controls + MAO inhibitor Pargyline, Rep 3
[12] = Table 4 Treatment 1: Compound B perfused with references, Average ± STD
[13] = Table 4 Treatment 1: Compound B perfused with references, Rat 1
[14] = Table 4 Treatment 1: Compound B perfused with references, Rat 2
[15] = Table 4 Treatment 1: Compound B perfused with references, Rat 3
[16] = Table 4 Treatment 2: Compound B perfused with references + MAO inhibitor Pargyline, Average ± STD
[17] = Table 4 Treatment 2: Compound B perfused with references + MAO inhibitor Pargyline, Rat 1
[18] = Table 4 Treatment 2: Compound B perfused with references + MAO inhibitor Pargyline, Rat 2
[19] = Table 4 Treatment 2: Compound B perfused with references + MAO inhibitor Pargyline, Rat 3
[20] = Table 5 Treatment 1: Compound A perfused with references, Average ± STD
[21] = Table 5 Treatment 1: Compound A perfused with references, Rat 1
[22] = Table 5 Treatment 1: Compound A perfused with references, Rat 2
[23] = Table 5 Treatment 1: Compound A perfused with references, Rat 3
[24] = Table 5 Treatment 2: Compound A perfused with references + CYP2D6 inhibitor Quinidine, Average ± STD
[25] = Table 5 Treatment 2: Compound A perfused with references + CYP2D6 inhibitor Quinidine, Rat 1
[26] = Table 5 Treatment 2: Compound A perfused with references + CYP2D6 inhibitor Quinidine, Rat 2
[27] = Table 5 Treatment 2: Compound A perfused with references + CYP2D6 inhibitor Quinidine, Rat 3

## Lucifer Yellow
[1]; Treatment 1: Compound B assayed with controls, Average ± STD
  Papp: 14.40 ± 0.37 ×10^−6 cm/s
[1]; Treatment 1: Compound B assayed with controls, Rep 1
  Papp: 1.481e-05 cm/s
[1]; Treatment 1: Compound B assayed with controls, Rep 2
  Papp: 1.411e-05 cm/s
[1]; Treatment 1: Compound B assayed with controls, Rep 3
  Papp: 1.426e-05 cm/s
[1]; Treatment 2: Compound B assayed with controls + MAO inhibitor Pargyline, Average ± STD
  Papp: 15.10 ± 0.11 ×10^−6 cm/s
[1]; Treatment 2: Compound B assayed with controls + MAO inhibitor Pargyline, Rep 1
  Papp: 1.509e-05 cm/s
[1]; Treatment 2: Compound B assayed with controls + MAO inhibitor Pargyline, Rep 2
  Papp: 1.5e-05 cm/s
[1]; Treatment 2: Compound B assayed with controls + MAO inhibitor Pargyline, Rep 3
  Papp: 1.521e-05 cm/s
[1]; [4]
  Papp: 14.82 ± 0.88 ×10^−6 cm/s
[1]; [5]
  Papp: 1.561e-05 cm/s
[1]; [6]
  Papp: 1.388e-05 cm/s
[1]; [7]
  Papp: 1.499e-05 cm/s
[1]; [8]
  Papp: 13.76 ± 0.46 ×10^−6 cm/s
[1]; [9]
  Papp: 1.327e-05 cm/s
[1]; [10]
  Papp: 1.382e-05 cm/s
[1]; [11]
  Papp: 1.42e-05 cm/s
[1]; Treatment 5: Compound A assayed with controls, Average ± STD
  Papp: 14.56 ± 1.33 ×10^−6 cm/s
[1]; Treatment 5: Compound A assayed with controls, Rep 1
  Papp: 1.491e-05 cm/s
[1]; Treatment 5: Compound A assayed with controls, Rep 2
  Papp: 1.309e-05 cm/s
[1]; Treatment 5: Compound A assayed with controls, Rep 3
  Papp: 1.568e-05 cm/s
[1]; Treatment 7: CYP2D6 substrate Bufuralol assayed with controls, Average ± STD
  Papp: 13.88 ± 0.56 ×10^−6 cm/s
[1]; Treatment 7: CYP2D6 substrate Bufuralol assayed with controls, Rep 1
  Papp: 1.355e-05 cm/s
[1]; Treatment 7: CYP2D6 substrate Bufuralol assayed with controls, Rep 2
  Papp: 1.357e-05 cm/s
[1]; Treatment 7: CYP2D6 substrate Bufuralol assayed with controls, Rep 3
  Papp: 1.452e-05 cm/s

## Cc1cc(=O)n(-c2ccccc2)n1C [Antipyrine, reference compound]
[2]; [12]
  Brain Concentration (corrected for drug retained in vascular volume): 1083.1 ± 141.4 pmol/g
  Kin: 0.342 ± 0.045 mL/g/min
[2]; [13]
  Brain Concentration (corrected for drug retained in vascular volume): 1123.1 pmol/g
  Kin: 0.355 mL/g/min
[2]; [14]
  Brain Concentration (corrected for drug retained in vascular volume): 1200.2 pmol/g
  Kin: 0.379 mL/g/min
[2]; [15]
  Brain Concentration (corrected for drug retained in vascular volume): 926.0 pmol/g
  Kin: 0.292 mL/g/min
[2]; [16]
  Brain Concentration (corrected for drug retained in vascular volume): 888.5 ± 47.9 pmol/g
  Kin: 0.300 ± 0.016 mL/g/min
[2]; [17]
  Brain Concentration (corrected for drug retained in vascular volume): 833.1 pmol/g
  Kin: 0.282 mL/g/min
[2]; [18]
  Brain Concentration (corrected for drug retained in vascular volume): 914.3 pmol/g
  Kin: 0.309 mL/g/min
[2]; [19]
  Brain Concentration (corrected for drug retained in vascular volume): 918.0 pmol/g
  Kin: 0.310 mL/g/min
[2]; [20]
  Brain Concentration (corrected for drug retained in vascular volume): 1157.1 ± 239.3 pmol/g
  Kin: 0.376 ± 0.078 mL/g/min
[2]; [21]
  Brain Concentration (corrected for drug retained in vascular volume): 1426.6 pmol/g
  Kin: 0.463 mL/g/min
[2]; [22]
  Brain Concentration (corrected for drug retained in vascular volume): 1074.9 pmol/g
  Kin: 0.349 mL/g/min
[2]; [23]
  Brain Concentration (corrected for drug retained in vascular volume): 969.7 pmol/g
  Kin: 0.315 mL/g/min
[2]; [24]
  Brain Concentration (corrected for drug retained in vascular volume): 1124.7 ± 135.5 pmol/g
  Kin: 0.386 ± 0.047 mL/g/min
[2]; [25]
  Brain Concentration (corrected for drug retained in vascular volume): 977.7 pmol/g
  Kin: 0.336 mL/g/min
[2]; [26]
  Brain Concentration (corrected for drug retained in vascular volume): 1244.5 pmol/g
  Kin: 0.427 mL/g/min
[2]; [27]
  Brain Concentration (corrected for drug retained in vascular volume): 1151.8 pmol/g
  Kin: 0.395 mL/g/min

## NCCc1ccccc1 [Phenylethylamine]
[3]; [4]
  Papp at 120 min: 18.94 ± 0.1 ×10⁻⁶ cm/s
[3]; [5]
  Papp at 120 min: 18.8 ×10⁻⁶ cm/s
[3]; [6]
  Papp at 120 min: 18.9 ×10⁻⁶ cm/s
[3]; [7]
  Papp at 120 min: 19 ×10⁻⁶ cm/s
[3]; [8]
  Papp at 120 min: 35.2 ± 0.98 ×10⁻⁶ cm/s
[3]; [9]
  Papp at 120 min: 34.5 ×10⁻⁶ cm/s
[3]; [10]
  Papp at 120 min: 36.3 ×10⁻⁶ cm/s
[3]; [11]
  Papp at 120 min: 34.7 ×10⁻⁶ cm/s
[1]
  Permeation (Papp) in the presence of the MAO inhibitor Pargyline compared to alone: significant increased
